Experimental data reported in patent publication US8450374B2, “Pan-antagonists for the androgen receptor and androgen receptor mutants associated with anti-androgen withdrawal” (priority 2009, dated 2013).
Changes are numbered by the printed parent chain.

Experiments:
AR T877A = molecular target: T1, AR T877A (Homo sapiens, UniProt P10275, T878A); assay: Competitive binding assay, [3H]DHT, transfected COS-7 cells, AR T877A; set-up: expressed in transfected cells; host or cells: COS-7; conditions: 14 nM [3H]-DHT, read-out: Binding affinity (Ki), AR T877A
T1 sequence (P10275 1-920 T878A): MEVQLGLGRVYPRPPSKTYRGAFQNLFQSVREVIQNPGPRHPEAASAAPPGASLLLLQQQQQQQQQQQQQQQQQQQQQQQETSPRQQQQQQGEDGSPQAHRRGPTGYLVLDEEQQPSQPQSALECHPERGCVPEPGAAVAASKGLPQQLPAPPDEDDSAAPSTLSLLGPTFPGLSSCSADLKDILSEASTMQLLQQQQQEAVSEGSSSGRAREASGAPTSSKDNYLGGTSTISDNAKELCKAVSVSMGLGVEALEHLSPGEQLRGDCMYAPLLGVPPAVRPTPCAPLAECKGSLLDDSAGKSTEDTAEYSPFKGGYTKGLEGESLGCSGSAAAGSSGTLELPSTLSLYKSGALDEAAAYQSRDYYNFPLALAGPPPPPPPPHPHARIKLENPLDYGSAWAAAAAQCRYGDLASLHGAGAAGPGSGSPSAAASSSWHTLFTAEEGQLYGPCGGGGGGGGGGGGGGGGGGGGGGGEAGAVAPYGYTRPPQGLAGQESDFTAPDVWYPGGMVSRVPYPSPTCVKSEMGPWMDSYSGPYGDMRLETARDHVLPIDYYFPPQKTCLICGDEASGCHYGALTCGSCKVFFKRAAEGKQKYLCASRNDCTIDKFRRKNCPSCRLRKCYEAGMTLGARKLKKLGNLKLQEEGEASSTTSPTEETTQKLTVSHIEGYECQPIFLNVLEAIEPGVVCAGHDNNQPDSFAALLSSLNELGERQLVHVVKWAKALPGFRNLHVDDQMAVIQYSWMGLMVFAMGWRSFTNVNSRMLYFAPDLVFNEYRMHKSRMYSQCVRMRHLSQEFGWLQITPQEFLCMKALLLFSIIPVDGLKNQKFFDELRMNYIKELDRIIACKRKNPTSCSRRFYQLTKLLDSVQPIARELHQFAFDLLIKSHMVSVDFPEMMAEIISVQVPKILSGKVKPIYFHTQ
Description: Twenty-four hours prior to transfection, COS-7 cells were seeded at a density of 70,000 cells per well in 24-well cell culture plates and grown in phenol red free Dulbecco's Modified Eagle Medium (DMEM) supplement with 10% cosmic calf serum (CCS). The cells were transfected with a prokaryotic expression vector encoding the wild-type androgen receptor or mutant androgen receptor using Lipofectamine (Invitrogen) following manufacturer's protocol. […] Cells were washed with PBS and harvested in 2% SDS, 10% glycerol, and 10 mM Tris, pH 6.8, and radioactivity determined by scintillation counting.

AR W741L = molecular target: T2, AR W741L (Homo sapiens, UniProt P10275, W742L); assay: Transcription assay (ARE-luciferase reporter) in CV-1 cells, AR W741L; format: cell-based; conditions: for Antagonist efficacy (RLU value at IC50), AR W741L: in competition with 250 nM DHT
T2 construct: expressed in transfected cells; host or cells: CV-1
T2 sequence (P10275 1-920 W742L): T1 sequence (P10275 1-920 T878A) with W742L, A878T
Description: Twenty-four hours prior to transfection, CV-1 cells were seeded at a density of 45,000 cells per well in 24-well cell culture plates and grown in phenol red free Dulbecco's Modified Eagle Medium (DMEM) supplemented with 10% cosmic calf serum (COS). ARE-luciferase reporter and Renilla-Luc as the internal standard and a prokaryotic expression vector encoding the wild-type androgen receptor or mutant androgen receptor were transfected with Lipofectamine (Invitrogen) following manufacturer's protocol. Five hours after transfection, media was added containing the appropriate concentrations of ligands. The cells were allowed to incubate for 38 hours before harvesting by passive lysis buffer. Cell extracts were immediately assayed using the Dual Luciferase Assay (Promega) with a Perkin-Elmer Microbeta Luminometer. […] Dose-response data was analyzed by nonlinear regression analysis using GraphPad Prism.

[1] = molecular target: T3, AR ligand-binding domain (LBD) (Homo sapiens, UniProt P10275); assay: Coactivator peptide recruitment by TR-FRET; format: biochemical; conditions: read after 2 h and 4 h incubation
T3 construct: purchased Invitrogen PV8431
T3 sequence (P10275 669-900 limits assumed): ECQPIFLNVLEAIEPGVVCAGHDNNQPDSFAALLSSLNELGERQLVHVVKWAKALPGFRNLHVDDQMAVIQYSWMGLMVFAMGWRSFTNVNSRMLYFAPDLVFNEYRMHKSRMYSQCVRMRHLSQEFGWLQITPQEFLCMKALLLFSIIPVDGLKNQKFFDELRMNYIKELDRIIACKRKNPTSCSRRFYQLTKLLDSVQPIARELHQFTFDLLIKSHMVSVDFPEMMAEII
Description: Briefly, serial dilutions of ligand stocks solutions (in DMSO) were made in TR-FRET coregulator buffer A in a 384 well plate. To each well was added a 4×-stock solution of the AR-LBD followed by a 4× stock solution of fluorescein D-11 peptide and lanthanide-labeled antiGST antibody. The plates were read by time resolved fluorescence after 2 h and 4 h incubation.

[2] = test system: AR protein levels in CRW22 cells; assay: AR downregulation by western blot, CRW22RV1 cells; format: cell-based; conditions: CRW22RV1 cells, 10, 50 or 100 μM, 24 h
Description: Compounds that down regulate the levels of AR in prostate cancer may be effective in androgen dependent cells and anti-androgen resistant cells that over express the androgen receptor. […] LNCaP or CRW22RV1 cells were treated with 10 μM, 50 μM or 100 μM compound for 24 h. Cells were harvested and lysed. Cell lysates were analyzed by SDS-PAGE followed by immunostaining with anti-AR and anti-lamin antibodies (see FIGS. 15 and 16).

| SMILES | Ki (AR T877A) [µM] | IC50 (AR W741L) [µM] | Antagonist efficacy (RLU value at IC50), AR W741L (AR W741L) | Coactivator peptide (D11, FXXLF) association with AR(LBD) [1] | AR protein levels relative to bicalutamide, DHT or DMSO controls [2] |
| --- | --- | --- | --- | --- | --- |
| CN(C)CCCOc1cccc(Cc2ccccc2S(=O)(=O)CC(C)(O)C(=O)Nc2ccc(C#N)c(C(F)(F)F)c2)c1 (stereo not shown) [PAN22] | 1.75 | 3 ± 1.8 | (52% ± 4.9%) |  |  |
| CC(O)(CS(=O)(=O)c1ccccc1-c1ccccc1O)C(=O)Nc1ccc(C#N)c(C(F)(F)F)c1 (stereo not shown) [PAN41, N-(4-cyano-3-(trifluoromethyl)phenyl)-2-hydroxy-3-(2′-hydroxybiphenyl-2-ylsulfonyl)-2-methylpropanamide] |  | 5.8 ± 1.6 | (50% ± 1.0%) |  |  |
| CN(C)CCCOc1cccc(-c2ccccc2S(=O)(=O)CC(C)(O)C(=O)Nc2ccc(C#N)c(C(F)(F)F)c2)c1 (stereo not shown) [PAN52] | 4.13 | 12.2 ± 6.2 | (53% ± 5.2%) | do not show coactivator association | downregulation of AR protein levels |
| CN(C)CCCOc1ccc(-c2ccccc2S(=O)(=O)CC(C)(O)C(=O)Nc2ccc(C#N)c(C(F)(F)F)c2)cc1 (stereo not shown) [PAN62] | 4.3 | 11 ± 11 | (62% ± 12%) |  |  |
